Test results from the NIST ThermoML archive (doi:10.1016/j.jct.2007.03.012).

Conditions: Liquid, Bellows volumetry

CCC [propane]
mass density [kg/m3]
Conditions | 280 K | 300 K | 320 K | 340 K | 360 K | 380 K | 400 K | 420 K | 440 K
1000 kPa | 520.5 | 489.81 | – | – | – | – | – | – | –
2000 kPa | 522.64 | 492.87 | 457.48 | – | – | – | – | – | –
3000 kPa | 524.74 | 495.95 | 462.23 | 418.14 | – | – | – | – | –
5000 kPa | 528.56 | 501.37 | 470.53 | 433.26 | 380.9 | – | – | – | –
10000 kPa | 537.44 | 512.99 | 486.59 | 457.48 | 424.08 | 384.1 | 334.74 | – | –
20000 kPa | 551.94 | 530.94 | 509.27 | 486.91 | 463.3 | 438.22 | 411.69 | 384.77 | 357.43
30000 kPa | 563.74 | 544.91 | 525.89 | 506.87 | 487.16 | 466.67 | 445.87 | 425.47 | 405.22
40000 kPa | 573.78 | 556.1 | 539.36 | 522.28 | 505.03 | 487.15 | 469.1 | 451.66 | 434.68
50000 kPa | 582.55 | 566.32 | 550.64 | 534.97 | 519.45 | 503.08 | 486.87 | 471.39 | 456.37
60000 kPa | 590.49 | 575.16 | 560.7 | 545.94 | 531.56 | 516.47 | 501.44 | 487.29 | 473.51
70000 kPa | 597.67 | 583.22 | 569.45 | 555.7 | 542.12 | 527.94 | 513.89 | 500.74 | 488.02
80000 kPa | 604.54 | 590.34 | 577.41 | 564.27 | 551.67 | 538.06 | 524.67 | 512.43 | 500.46
90000 kPa | 610.6 | 597.08 | 584.63 | 572.21 | 560.11 | 547.06 | 534.43 | 522.77 | 511.55
100000 kPa | 616.37 | 603.47 | 591.38 | 579.45 | 568.02 | 555.29 | 543.41 | 532.04 | 521.4
120000 kPa | 627.11 | 614.69 | 603.54 | 592.54 | 581.93 | 570.05 | 558.91 | 548.04 | 538.39
140000 kPa | 636.51 | 624.98 | 614.39 | 603.89 | 593.99 | 582.94 | 572.19 | 562.28 | 553.07
160000 kPa | 645.22 | 634.04 | 624.07 | 614.28 | 604.85 | 594.15 | 583.93 | 574.66 | 565.84
180000 kPa | 653.38 | 642.55 | 632.92 | 623.6 | 614.61 | 604.41 | 594.64 | 585.51 | 577.32
200000 kPa | 660.82 | 650.24 | 641.18 | 632.17 | 623.73 | 613.68 | 604.15 | 595.61 | 587.63
